Results: patent publication EP0778025A1, “Use of 8,9-dehydroestrone for the manufacture of a medicament for the treatment of diseases caused by free radicals” (AMERICAN HOME PRODUCTS CORPORATION, priority 1995, dated 1997)
Read-outs that look alike come from different tables or passages of the source.

Key:
J774 macrophages = test: Binding of Cu++-treated 125I-LDL to J774 macrophages (scavenger lipoprotein receptors); assay type: cell-based; conditions: Mus musculus
Excerpt: In the first test procedure, radiolabeled-LDL (^125I-LDL) (McFarlane AS, In: Munro HN, Allison JB, eds. Mammalian Protein metabolism, Vol. 1. New York: Academic Press 297-341 (1964)) was modified by exposure to Cu++ in the presence and absence of 8,9-dehydroestrone. Next, J774 macrophages, which express scavenger lipoprotein receptors which bind oxidatively modified-LDL, were exposed to the treated ^125I-LDL. […] By comparison, the same concentrations of estrone reduced the binding of LDL that was oxidized by 39% and 0%, respectively. Since binding and metabolism of oxidized LDL by macrophages is though to contribute strongly to the development of foam cells and therefore, atherosclerotic plaque, this effect of reducing LDL oxidation and subsequent binding to scavenger receptors is thought to be of significant benefit.

[1] = test system: porcine aortic endothelial cells (PAEC); test: MTT cytotoxicity assay of porcine aortic endothelial cells exposed to Cu++-treated LDL; assay type: cell-based; conditions: 25 ug/ml LDL Cu++ treated in presence of compound (2.5µM stated for 8,9-dehydroestrone), 24 hr incubation, 2% viable without compound
Method: In the second test procedure, porcine aortic endothelial cells (PAEC) were exposed to LDL that had been modified as above, by exposure to Cu++ in the presence and absence of 8,9-dehydroestrone. […] Subsequent to a 24 hr incubation of the cells with the treated LDL, an MTT assay was performed to assess cytotoxicity (Hansen MB, J Immu Methods 119:203-210 (1989)). This test procedure assesses the percent of cells that are viable (live) in a given assay. In the assay, following exposure to 25 ug/ml LDL oxidized in the absence of compound, only 2% of the cells remained viable. In contrast, the percent live cells following exposure to LDL Cu++ treated in the presence of 8,9-dehydroestrone (2.5µM) was 100% or greater.

[2] = test system: low density lipoprotein (LDL); test: Inhibition of Cu++ mediated LDL oxidation (TBARS method)
[3] = J774, read-out: reduction of binding of the LDL that was oxidized

SMILES	inhibition at 0.25 µM (J774 macrophages; [3]) [%]	inhibition at 2.5 µM (J774 macrophages; [3]) [%]	percent live cells [1] [%]	IC50 ([2]; Cu++ mediated LDL oxidation, TBARS) [nM]	inhibition of LDL oxidation ([2]; maximal inhibition, stated for the test procedure in general (Cu++ or endothelial cell induced)) [%]	inhibition at 0.25 µM (J774 macrophages; 0.25 µM compound present during Cu++ oxidation of 125I-LDL, J774 macrophages, read-out: reduction of binding of the LDL that was oxidized) [%]	inhibition at 2.5 µM (J774 macrophages; 2.5 µM compound present during Cu++ oxidation of 125I-LDL, J774 macrophages, read-out: reduction of binding of the LDL that was oxidized) [%]
C[C@]12CCC3=C(CCc4cc(O)ccc43)[C@@H]1CCC2=O [8,9-dehydroestrone]	56	72	≥ 100	220	≤ 100	–	–
C[C@]12CC[C@H]3C(=CCc4cc(O)ccc43)[C@@H]1CCC2=O [Equilin, reference compound]	–	–	4	–	–	–	–
C[C@]12CC[C@@H]3c4ccc(O)cc4CC[C@H]3[C@@H]1CCC2=O [estrone]	–	–	–	–	–	0	39
